Results as given in ChEMBL document CHEMBL5728011, “Bicyclic heterocyclic compound” (2020).

Target: Kynurenine/alpha-aminoadipate aminotransferase, mitochondrial (Homo sapiens, UniProt Q8N5Z0)
Experiment: Inhibitory Assay: To a reaction mixture (45 μL) containing 3.0 μmol/L kynurenine, 10 μmol/L pyridoxal phosphate, 2.0 ng/μL human recombinant KAT-II, and 150 mmol/L tris(hydroxymethyl)aminomethane-acetate buffer (pH 8.0) was added a 10% dimethyl sulfoxide solution (5 μL) of each test compound prepared, and the mixture was reacted at 37° C. for 1 hr. After the reaction, 50% trichloroacetic acid (5 μL) was added to terminate the reaction.The resultant kynurenic acid was quantified as follows by high performance liquid chromatography. An enzyme reaction mixture was separated by an octadecylsilane reversed-phase column (SC-50DS, Eicom Corporation; mobile phase: 250 mmol/L zinc acetate, 50 mmol/L sodium acetate, and 5.0% acetonitrile (pH 6.2)) incubated at 30° C., and kynurenic acid was quantified using a fluorescence detector (RF-20Axs, Shimadzu Corporation) at excitation wavelength 354 nm, detection wavelength 460 nm. The analytical curve was drawn every time by an external standard method. Each test compound was tested by dual measurement at each concentration. The kynurenic acid level in the presence of a test compound at each concentration was converted into % relative to kynurenic acid resulting from a reaction with an enzyme alone as 100%, and the obtained values were fitted to S-curve to determine IC50.

Chain of Kynurenine/alpha-aminoadipate aminotransferase, mitochondrial (Q8N5Z0 whole entry): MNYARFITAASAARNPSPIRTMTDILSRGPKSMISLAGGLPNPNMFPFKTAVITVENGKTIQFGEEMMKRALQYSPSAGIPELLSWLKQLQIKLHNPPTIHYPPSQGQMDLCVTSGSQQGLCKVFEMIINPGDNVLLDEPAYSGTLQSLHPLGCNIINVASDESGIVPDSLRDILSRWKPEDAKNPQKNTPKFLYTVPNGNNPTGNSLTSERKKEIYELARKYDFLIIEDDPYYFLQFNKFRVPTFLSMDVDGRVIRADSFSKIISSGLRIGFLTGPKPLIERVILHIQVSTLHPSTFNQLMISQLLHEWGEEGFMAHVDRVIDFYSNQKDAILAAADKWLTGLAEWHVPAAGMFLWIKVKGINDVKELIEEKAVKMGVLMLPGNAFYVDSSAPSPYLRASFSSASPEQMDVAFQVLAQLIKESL

Row | IC50 | Compound
1 | 50 nM | Cc1nc(N(C)C)c2sc(N3CCC[C@@H]3C(=O)NCc3ccccc3)nc2n1
2 | 71 nM | CC1(C)CN(c2ncnc3nc(N4CCC[C@@H]4C(=O)NCc4ccccc4)sc23)CCO1
3 | 64 nM | COCCc1nc(N(C)C)c2sc(N3CCC[C@@H]3C(=O)NCc3ccccc3)nc2n1
4 | 47 nM | O=C(NCc1ccccc1)[C@H]1CCCN1c1nc2ncnc(N3CCOCC3)c2s1
5 | 35 nM | CON(C)c1ncnc2nc(N3CCC[C@@H]3C(=O)NCc3ccccc3)sc12
6 | 82 nM | COCc1nc(N(C)C)c2sc(N3CCC[C@@H]3C(=O)NCc3ccccc3)nc2n1
7 | 27 nM | CN(C)c1nc(C(F)(F)F)nc2nc(N3CCC[C@@H]3C(=O)NCc3ccccc3)sc12
8 | 140 nM | COCCOc1ncnc2nc(N3CCC[C@@H]3C(=O)NCc3ccccc3)sc12
